Literature values in patent publication US12084679B2, “Methods of in vitro differentiation of midbrain dopamine (mDA) neurons” (MEMORIAL SLOAN-KETTERING CANCER CENTER, priority 2015, dated 2024).

Assays:
ALK3 = ALK3 (Homo sapiens, UniProt P36894)
ALK2 = target: T1, ALK2 (Homo sapiens, UniProt Q04771)
T1 sequence (Q04771 21-509): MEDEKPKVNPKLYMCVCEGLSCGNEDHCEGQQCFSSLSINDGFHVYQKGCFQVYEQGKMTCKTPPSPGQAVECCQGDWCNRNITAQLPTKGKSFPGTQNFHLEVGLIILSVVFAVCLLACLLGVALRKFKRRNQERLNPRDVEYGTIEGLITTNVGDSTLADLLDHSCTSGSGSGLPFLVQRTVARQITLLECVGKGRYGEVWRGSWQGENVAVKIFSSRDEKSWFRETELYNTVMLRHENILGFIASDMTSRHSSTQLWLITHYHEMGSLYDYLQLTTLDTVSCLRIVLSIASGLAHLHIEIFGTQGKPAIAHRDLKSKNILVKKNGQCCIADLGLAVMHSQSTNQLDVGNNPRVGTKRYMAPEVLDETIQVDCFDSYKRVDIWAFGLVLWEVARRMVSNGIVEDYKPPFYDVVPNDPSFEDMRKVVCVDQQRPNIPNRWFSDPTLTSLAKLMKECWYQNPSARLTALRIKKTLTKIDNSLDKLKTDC

ALK6 = ALK6 (Homo sapiens, UniProt O00238)
ALK6, sequence (O00238 14-502): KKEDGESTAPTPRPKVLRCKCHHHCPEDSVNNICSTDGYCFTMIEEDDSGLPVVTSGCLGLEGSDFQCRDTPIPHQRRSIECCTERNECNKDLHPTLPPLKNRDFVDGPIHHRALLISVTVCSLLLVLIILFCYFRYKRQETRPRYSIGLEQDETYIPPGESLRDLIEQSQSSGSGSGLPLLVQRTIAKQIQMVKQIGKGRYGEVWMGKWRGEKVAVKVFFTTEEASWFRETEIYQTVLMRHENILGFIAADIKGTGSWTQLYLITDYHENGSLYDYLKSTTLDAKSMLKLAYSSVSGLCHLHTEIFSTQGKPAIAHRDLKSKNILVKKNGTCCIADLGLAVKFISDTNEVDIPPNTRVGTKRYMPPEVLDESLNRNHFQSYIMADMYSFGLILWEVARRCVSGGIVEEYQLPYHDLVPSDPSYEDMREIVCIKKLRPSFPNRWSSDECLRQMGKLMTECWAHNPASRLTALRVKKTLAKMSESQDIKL

ALK3, sequence (P36894 24-532, species assumed): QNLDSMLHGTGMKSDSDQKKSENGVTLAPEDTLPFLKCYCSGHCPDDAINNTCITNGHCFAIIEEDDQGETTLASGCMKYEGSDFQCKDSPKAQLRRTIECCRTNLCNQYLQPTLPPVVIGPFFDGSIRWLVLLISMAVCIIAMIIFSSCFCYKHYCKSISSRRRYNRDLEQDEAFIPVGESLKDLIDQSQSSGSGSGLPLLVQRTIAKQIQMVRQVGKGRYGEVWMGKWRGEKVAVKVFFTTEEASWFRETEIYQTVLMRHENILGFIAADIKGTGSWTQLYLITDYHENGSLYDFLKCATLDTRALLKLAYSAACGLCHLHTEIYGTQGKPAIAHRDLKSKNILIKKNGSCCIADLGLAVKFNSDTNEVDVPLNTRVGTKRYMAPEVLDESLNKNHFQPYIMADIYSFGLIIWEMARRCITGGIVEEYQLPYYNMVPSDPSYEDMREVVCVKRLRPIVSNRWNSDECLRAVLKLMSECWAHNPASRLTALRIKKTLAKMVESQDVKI

| IC50 values against rodent GSK3β homologs (rodent GSK3β homologs) | inhibitor of ALK3 (ALK3) | inhibitor of ALK2 (ALK2) | inhibitor of ALK6 (ALK6) | SMILES |
| --- | --- | --- | --- | --- |
| nanomolar |  |  |  | Cc1c[nH]c(-c2cnc(NCCNc3ccc(C#N)cn3)nc2-c2ccc(Cl)cc2Cl)n1 [CHIR99021, 6-(2-(4-(2,4-dichlorophenyl)-5-(4-methyl-H-imidazol-2-yl)pyrimidin-2-ylamino)ethylamino)nicotinonitrile] |
|  | highly potent | highly potent | highly potent | c1ccc2c(-c3cnn4cc(-c5ccc(N6CCNCC6)cc5)cnc34)ccnc2c1 [LDN193189, 4-(6-(4-(piperazin-1-yl)phenyl)pyrazolo[1,5-a]pyrimidin-3-yl)quinoline] |
